For eight molecules, IC50 results are on record in ChEMBL document CHEMBL5728406, “Thioether triazolopyridine and triazolopyrimidine inhibitors of myeloperoxidase” (2021).

The IC50 is the concentration that inhibits the measured activity by half.

Experiment [1] concerns the target T1, Myeloperoxidase (Homo sapiens, UniProt P05164).
T1 sequence (P05164 whole entry): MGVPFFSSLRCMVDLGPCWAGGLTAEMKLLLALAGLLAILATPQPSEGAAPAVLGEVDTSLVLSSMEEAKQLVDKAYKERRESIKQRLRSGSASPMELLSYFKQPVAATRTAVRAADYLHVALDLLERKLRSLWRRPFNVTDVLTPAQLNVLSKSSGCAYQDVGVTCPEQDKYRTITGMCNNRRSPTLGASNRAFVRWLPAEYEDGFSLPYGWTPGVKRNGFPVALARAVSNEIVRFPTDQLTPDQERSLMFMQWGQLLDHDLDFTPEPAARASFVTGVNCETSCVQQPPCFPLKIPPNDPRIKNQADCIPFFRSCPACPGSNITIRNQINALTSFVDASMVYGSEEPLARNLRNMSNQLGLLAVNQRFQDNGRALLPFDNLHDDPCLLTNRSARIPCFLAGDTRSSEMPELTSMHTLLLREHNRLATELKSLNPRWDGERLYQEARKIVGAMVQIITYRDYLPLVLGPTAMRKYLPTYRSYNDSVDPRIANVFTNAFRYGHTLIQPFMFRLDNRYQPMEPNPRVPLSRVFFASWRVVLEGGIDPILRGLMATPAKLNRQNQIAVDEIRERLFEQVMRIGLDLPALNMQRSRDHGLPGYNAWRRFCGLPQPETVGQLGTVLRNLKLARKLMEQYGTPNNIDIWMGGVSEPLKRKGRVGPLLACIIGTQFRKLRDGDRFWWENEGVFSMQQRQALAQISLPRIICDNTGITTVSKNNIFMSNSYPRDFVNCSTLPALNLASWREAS
Briefly: MPO Chlorination (APF) Assay : MPO chlorination activity was measured in 100 mM KPi (pH 7.4) by utilizing the non-fluorescent reagent Aminophenyl fluorescein (APF, Invitrogen catalog #A36003). APF is cleaved by (—OCl) to yield the fluorescent compound fluorescein. […] Enzyme, inhibitor, and chloride were preincubated for ten minutes at rt.After the ten minute preincubation, 25 μL of an APF mixture containing […], 120 mM NaCl and 10 μM H2O2 was added to the plate using the internal dispensing system of a Hammatsu FDSS 6000. […] IC50 values for inhibitors were calculated by taking the slope of the linear portion of the kinetic measurement (20 seconds to ˜80-120 secs).IC50 values were calculated by determining the slope of the linear portion of the kinetic trace (180-540 secs), and using that calculated slope to determine % inhibition occurring at each concentration of inhibitor using the following equation:Y = A + B - A 1 + ( C / x ) Dwhere A=minimal Y value (activity level of inhibited sample), B=maximal Y value (activity level of uninhibited sample), C=Log IC50, D=Hill Slope, x=concentration of inhibitor.

For experiment [2], the target named is T1, Myeloperoxidase. Briefly: MPO Peroxidation (Amplex Red) Assay: MPO peroxidation activity was measured in 100 mM KPi (pH 7.4) by utilizing the non-fluorescent reagent Amplex Red (Invitrogen catalog #A12222) which can be oxidized to the highly fluorescent resorufin. Amplex Red is oxidized by the peroxidase action of MPO to resorufin. […] Enzyme and compound were preincubated for ten minutes at rt.After the ten minute preincubation, 25 μL of an Amplex Red mixture containing 200 μM Amplex Red and 10 mM H2O2 was added to the plate.

Where only a bound is given, the exact number is not on record here.

Turning to `Cn1cc(CSc2cc(N)nc3[nH]nnc23)c(C(F)(F)F)n1`, the IC50 at Myeloperoxidase [1] is under 60 nM. The same measure, in the same setting: then `N#Cc1c(F)cccc1CSc1cc(N)nc2[nH]nnc12`, with under 60 nM; and `N#Cc1ccc(Cl)c(CSc2cc(N)nc3[nH]nnc23)c1`, with under 60 nM. Take `Cn1ncc(CSc2cc(N)nc3[nH]nnc23)c1C(F)(F)F`: the IC50 at Myeloperoxidase [1] is under 60 nM. With `Cc1nn(C)c(C)c1CSc1cc(N)nc2[nH]nnc12`, the figures for the IC50 on Myeloperoxidase [1] and on Myeloperoxidase [2] were 80 nM and 30 nM, respectively.

As for `Cn1nc(C(F)(F)F)c(CSc2cc(N)nc3[nH]nnc23)c1F`, the IC50 at Myeloperoxidase [1] was under 60 nM. On the same count and under the same terms, to `N#Cc1cccc(Br)c1CSc1cc(N)nc2[nH]nnc12` belongs under 60 nM. Same read-out and setting: then `CCc1nn(C)c(Cl)c1CSc1cc(N)nc2[nH]nnc12`, with under 60 nM.
